Source: patent US5438052A, “Cephalosporin derivatives” (Hoffmann-La Roche Inc., priority 1991, dated 1995)
Converted amounts (≈) assume the structure as drawn. Where two headings read alike, the source gives them in different places.

Tests used:
C. freundii 902 = test: Minimum inhibitory concentration in vitro, agar dilution method; format: cell-based; settings: Citrobacter freundii
Text: (§1) 1. Minimum Inhibitory Concentration in vitro
(§2) The activities ascertained, minimum inhibitory concentration (MIC) in μg/ml, are compiled in Table 1 hereinafter: […]

E. aerogenes CF153 = test: as above; format: cell-based; settings: Klebsiella aerogenes; E. aerogenes CF153, agar dilution; read-out: MIC
Text: as §1, §2

E. cloacae 908R = test: as above; format: cell-based; settings: Enterobacter cloacae
Text: as §1, §2

E. cloacae 908SSi = test: as above; format: cell-based; settings: Enterobacter cloacae
Text: as §1, §2

E. cloacae P99 = test: as above; format: cell-based; settings: Enterobacter cloacae
Text: as §1, §2

E. coli 25922 [1] = test: as above; format: cell-based; settings: Escherichia coli
Text: as §1, §2

K. oxytoca 1082 = test: as above; format: cell-based; settings: Klebsiella oxytoca
Text: as §1, §2

K. pneumoniae 418 = test: as above; format: cell-based; settings: Klebsiella pneumoniae
Text: as §1, §2

P. aeruginosa 27853 = test: as above; format: cell-based; settings: Pseudomonas aeruginosa
Text: as §1, §2

P. aeruginosa 799/61 = test: as above; format: cell-based; settings: Pseudomonas aeruginosa
Text: as §1, §2

P. aeruginosa 799/WT = test: as above; format: cell-based; settings: Pseudomonas aeruginosa
Text: as §1, §2

P. aeruginosa BA = test: as above; format: cell-based; settings: Pseudomonas aeruginosa
Text: as §1, §2

P. aeruginosa MK1184 = test: as above; format: cell-based; settings: Pseudomonas aeruginosa
Text: as §1, §2

P. mirabilis 2117 = test: as above; format: cell-based; settings: Proteus mirabilis
Text: as §1, §2

P. vulgaris 1028 = test: as above; format: cell-based; settings: Proteus vulgaris
Text: as §1, §2

S. aureus 6538 = test: as above; format: cell-based; settings: Staphylococcus aureus
Text: as §1, §2

S. marcescens 69438 = test: as above; format: cell-based; settings: Serratia marcescens
Text: as §1, §2

S. pyogenes 15 = test: as above; format: cell-based; settings: Streptococcus pyogenes
Text: as §1, §2

S. pneumoniae BA = test: as above; format: cell-based; settings: Streptococcus pneumoniae
Text: as §1, §2

E. coli 25922 [2] = test: Experimental systemic septicaemia in the mouse; format: in vivo; settings: Escherichia coli, 25922, sc, 96 h
Procedure: (§3) 2. Experimental systemic septicaemia in the mouse
(§4) An experimental systemic septicaemia was produced in albino mice weighing 16-20 g by intraperitoneally injecting into the experimental animals a sample of a dilute culture of the test organism which had been grown overnight. The sample administered is calculated such that the dosage administered is about 5-100 times greater than the dosage which is required to kill 50% of untreated experimental animals within 48 hours. The bacteria were injected as a suspension in the culture broth. Groups of 5 experimental animals each were used not only for the control, but also for the treatment for each dosage tested. The products in accordance with the invention were administered subcutaneously as a suspension in Tween 80 (2%), whereby the concentrations were chosen such that each experimental animal received 500 μl per administration. The respective concentrations were administered twice, namely 1 and 3 hours after the infection (in the case of P. aeruginosa three times, namely 1, 3 and 5 hours after the infection). The ED50 is that dosage which protects 50% of the experimental animals and was calculated by means of the Probit method on the basis of the survial rate after 4 days following the infection. The ED50 values in mg/kg s.c. (subcutaneous) for representatives of the class of substance in accordance with the invention are given in Table 2 hereinafter.

[3] = system: Pseudomonas aeruginosa BA; test: Experimental systemic septicaemia in the mouse; format: in vivo; settings: sc, 96 h
Procedure: as §3, §4

[4] = C. freundii 902, agar dilution, read-out: MIC
[5] = E. cloacae 908R, agar dilution, read-out: MIC
[6] = E. cloacae 908SSi, agar dilution, read-out: MIC
[7] = E. coli 25922, agar dilution, read-out: MIC
[8] = K. oxytoca 1082, agar dilution, read-out: MIC
[9] = K. pneumoniae 418, agar dilution, read-out: MIC
[10] = P. aeruginosa 27853, agar dilution, read-out: MIC
[11] = P. aeruginosa 799/61, agar dilution, read-out: MIC
[12] = P. aeruginosa 799/WT, agar dilution, read-out: MIC
[13] = P. aeruginosa BA, agar dilution, read-out: MIC
[14] = P. aeruginosa MK1184, agar dilution, read-out: MIC
[15] = P. mirabilis 2117, agar dilution, read-out: MIC
[16] = P. vulgaris 1028, agar dilution, read-out: MIC
[17] = S. aureus 6538, agar dilution, read-out: MIC
[18] = S. marcescens 69438, agar dilution, read-out: MIC
[19] = S. pyogenes 15, agar dilution, read-out: MIC

| SMILES | MIC (C. freundii 902; [4]) [µg/mL] | MIC (E. aerogenes CF153) [µg/mL] | MIC (E. cloacae 908R; [5]) [µg/mL] | MIC (E. cloacae 908SSi; [6]) [µg/mL] | MIC (E. cloacae P99) [µg/mL] | MIC (E. coli 25922 [1]; [7]) [µg/mL] | MIC (K. oxytoca 1082; [8]) [µg/mL] | MIC (K. pneumoniae 418; [9]) [µg/mL] | MIC (P. aeruginosa 27853; [10]) [µg/mL] | MIC (P. aeruginosa 799/61; [11]) [µg/mL] | MIC (P. aeruginosa 799/WT; [12]) [µg/mL] | MIC (P. aeruginosa BA; [13]) [µg/mL] | MIC (P. aeruginosa MK1184; [14]) [µg/mL] | MIC (P. mirabilis 2117; [15]) [µg/mL] | MIC (P. vulgaris 1028; [16]) [µg/mL] | MIC (S. aureus 6538; [17]) [µg/mL] | MIC (S. marcescens 69438; [18]) [µg/mL] | MIC (S. pyogenes 15; [19]) [µg/mL] | further results |
| --- | --- | --- | --- | --- | --- | --- | --- | --- | --- | --- | --- | --- | --- | --- | --- | --- | --- | --- | --- |
| CC(C)(O/N=C(\C(=O)N[C@@H]1C(=O)N2C(C(=O)O)=C(CSc3ncncc3-c3ccc(O)c(O)c3)CS[C@H]12)c1csc(N)n1)C(=O)NO [Example 19a, (6R,7R)-7-[(Z)-2-(2-amino-4-thiazolyl)-2-[[1-(hydroxycarbamoyl)-1-methylethoxy]imino]acetamido]-3-[[[5-(3,4-dihydroxyphenyl)-4-pyrimidinyl]thio]methyl]-8-oxo-5-thia-1-azabicyclo[4.2.0]oct-2-ene-2-carboxylic acid] | 0.25 (≈ 0.356 µM) | 0.12 (≈ 0.171 µM) | 16 (≈ 22.8 µM) | 2 (≈ 2.85 µM) | 16 (≈ 22.8 µM) | < 0.1 | 1 (≈ 1.42 µM) | < 0.1 | 2 (≈ 2.85 µM) | < 0.1 | 0.25 (≈ 0.356 µM) | 1 (≈ 1.42 µM) | 16 (≈ 22.8 µM) | 0.25 (≈ 0.356 µM) | 0.12 (≈ 0.171 µM) | 16 (≈ 22.8 µM) | 0.12 (≈ 0.171 µM) | 0.5 (≈ 0.711 µM) | – |
| Nc1nc(/C(=N/OCc2cc(Cl)c(O)c(O)c2Cl)C(=O)N[C@@H]2C(=O)N3C(C(=O)O)=C(CSc4nc(-c5ccccc5)ncc4-c4ccc(O)c(O)c4)CS[C@H]23)cs1 [Example 18, (6R,7R)-7-[(Z)-2-(2-amino-4-thiazolyl)-2-[[(2,5-dichloro-3,4-dihydroxybenzyl)oxy]imino]acetamido]-3-[[[5-(3,4-dihydroxyphenyl)-2-phenyl-4-pyrimidinyl]thio]methyl]-8-oxo-5-thia-1-azabicyclo[4.2.0]oct-2-ene-2-carboxylic acid] | 0.12 (≈ 0.138 µM) | 0.12 (≈ 0.138 µM) | 2 (≈ 2.3 µM) | 8 (≈ 9.21 µM) | 16 (≈ 18.4 µM) | 0.12 (≈ 0.138 µM) | 0.25 (≈ 0.288 µM) | 0.12 (≈ 0.138 µM) | 2 (≈ 2.3 µM) | < 0.1 | 0.12 (≈ 0.138 µM) | 1 (≈ 1.15 µM) | 2 (≈ 2.3 µM) | < 0.1 | 0.12 (≈ 0.138 µM) | > 32 | 1 (≈ 1.15 µM) | 1 (≈ 1.15 µM) | – |
| Cc1cc(SCC2=C(C(=O)[O-])N3C(=O)[C@@H](NC(=O)/C(=N\OCS(=O)(=O)c4ccc(O)c(O)c4)c4csc(N)n4)[C@H]3SC2)n2nc(COC(=O)c3ccc(O)c(O)c3)nc2n1.[Na+] [Example 7, (6R,7R)-7-[(Z)-2-(2-amino-4-thiazolyl)-2-[[[(3,4-dihydroxyphenyl)sulphonyl]methoxy]imino]acetamido]-3-[[[2-[[(3,4-dihydroxybenzoyl)oxy]methyl]-5-methyl-s-triazolo[1,5-a]pyrimidin-7-yl]thio]methyl]-8-oxo-5-thia-1-azabicyclo[4.2.0]oct-2-ene-2-carboxylic acid sodium salt (1:1)] | – | – | – | – | 1 | – | – | – | – | – | – | – | – | – | – | – | – | – | MIC (C. freundii 902; 902): 0.12 µg/mL; MIC (E. cloacae 908R; 908R): 2 µg/mL; MIC (E. cloacae 908SSi; 908SSI): 4 µg/mL; MIC (E. coli 25922 [1]; 25922): < 0.1 µg/mL; MIC (K. oxytoca 1082; 1082): < 0.1 µg/mL; MIC (K. pneumoniae 418; 418): < 0.1 µg/mL; MIC (P. aeruginosa 27853; 27853): 1 µg/mL; MIC (P. aeruginosa 799/61; 799/61): 0.25 µg/mL; MIC (P. aeruginosa 799/WT; 799/WT): 0.5 µg/mL; MIC (P. aeruginosa BA): 0.12 µg/mL; MIC (P. aeruginosa MK1184; MK1184): < 0.1 µg/mL; MIC (P. mirabilis 2117; 2117): 0.12 µg/mL; MIC (P. vulgaris 1028; 1028): 0.12 µg/mL; MIC (S. aureus 6538; 6538): 32 µg/mL; MIC (S. marcescens 69438; 69438): 0.12 µg/mL; MIC (S. pneumoniae BA): 2 µg/mL; MIC (S. pyogenes 15; 15): 4 µg/mL; ED50 (E. coli 25922 [2]): < 0.3 mg/kg; ED50 [3]: 0.08 mg/kg |
